Holding throughout (assay): relative viability (nuclei count vs DMSO), 5 days (fraction); higher = more cells survive
Compound in the assay “MK-2206 + Pictilisib”: NC1(c2ccc(-c3nc4ccn5c(=O)[nH]nc5c4cc3-c3ccccc3)cc2)CCC1 [MK-2206] + CS(=O)(=O)N1CCN(Cc2cc3nc(-c4cccc5[nH]ncc45)nc(N4CCOCC4)c3s2)CC1 [Pictilisib] (partner 1 µM)
Summed up:
(§1)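 Nuclei were stained with Hoechst during a one-step fixation (final 0.05% Triton X-100, 1% formaldehyde, 1 ug/ml Hoechst) carried out 5 days after dosing, then counted on 4× images. The cells, lung cancer lines in 1536-well plates, had been dosed by pin tool the day after seeding with one drug alone or a fixed anchor-drug dose plus five library-drug doses (not always all listed) in √10 steps. Relative viability is the nuclei count in treated wells divided by that in vehicle wells, and each value is the median of duplicate plates.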

Compound in the assay “Pictilisib + Luminespib”: CS(=O)(=O)N1CCN(Cc2cc3nc(-c4cccc5[nH]ncc45)nc(N4CCOCC4)c3s2)CC1 [Pictilisib] + CCNC(=O)c1noc(-c2cc(C(C)C)c(O)cc2O)c1-c1ccc(CN2CCOCC2)cc1 [Luminespib] (partner 0.01 µM)
The essentials:
as §1

Compound in the assay “Pictilisib + Crizotinib”: CS(=O)(=O)N1CCN(Cc2cc3nc(-c4cccc5[nH]ncc45)nc(N4CCOCC4)c3s2)CC1 [Pictilisib] + C[C@@H](Oc1cc(-c2cnn(C3CCNCC3)c2)cnc1N)c1c(Cl)ccc(F)c1Cl [Crizotinib] (partner 1 µM)
The essentials: as §1

Compound in the assay “Pictilisib + Dasatinib”: CS(=O)(=O)N1CCN(Cc2cc3nc(-c4cccc5[nH]ncc45)nc(N4CCOCC4)c3s2)CC1 [Pictilisib] + Cc1nc(Nc2ncc(C(=O)Nc3c(C)cccc3Cl)s2)cc(N2CCN(CCO)CC2)n1 [Dasatinib] (partner 0.075 µM)
Summed up: as §1

Compound in the assay “Pictilisib + Vorinostat”: CS(=O)(=O)N1CCN(Cc2cc3nc(-c4cccc5[nH]ncc45)nc(N4CCOCC4)c3s2)CC1 [Pictilisib] + O=C(CCCCCCC(=O)Nc1ccccc1)NO [Vorinostat] (partner 1 µM)
The essentials: as §1

As for UMC-11, the relative viability in the assay with MK-2206 + Pictilisib (first compound 0.01 µM) is 0.762; with MK-2206 + Pictilisib (first compound 0.03162 µM), 0.821; with MK-2206 + Pictilisib (first compound 0.3162 µM), 0.837; with MK-2206 + Pictilisib (first compound 1 µM), 0.616; with Pictilisib + Luminespib (first compound 0.02 µM) it was 1.02; in the assay with Pictilisib + Luminespib (first compound 0.06325 µM) it was 1.15. The relative viability with Pictilisib + Luminespib (first compound 0.6325 µM) is 1.09; with Pictilisib + Luminespib (first compound 2 µM), 0.988; with Pictilisib + Crizotinib (first compound 0.02 µM) it was 0.633; with Pictilisib + Crizotinib (first compound 0.06325 µM), 0.887; in the assay with Pictilisib + Crizotinib (first compound 0.6325 µM), 0.733; with Pictilisib + Crizotinib (first compound 2 µM), 0.58. Moreover, the relative viability with Pictilisib + Dasatinib (first compound 0.02 µM) is 0.449; in the assay with Pictilisib + Dasatinib (first compound 0.06325 µM) it was 0.461; with Pictilisib + Dasatinib (first compound 0.6325 µM), 0.458; with Pictilisib + Dasatinib (first compound 2 µM), 0.515; with Pictilisib + Vorinostat (first compound 0.02 µM), 0.366; with Pictilisib + Vorinostat (first compound 0.06325 µM) it was 0.414. The relative viability with Pictilisib + Vorinostat (first compound 0.6325 µM) amounted to 0.464; with Pictilisib + Vorinostat (first compound 2 µM), 0.354.
